Common to all, as to type: functional
Test [1] deals with Mycobacterium tuberculosis. The test is described as follows: Antimicrobial activity against Mycobacterium tuberculosis H37Rv by microbroth dilution method. On the technique in general: Broth dilution looks for growth in wells or tubes with falling amounts of substance.
Test [2] has as its system Enterococcus faecalis. The test is described as follows: Antimicrobial activity against Enterococcus faecalis ATCC 33186 by microbroth dilution method.
Test [3] concerns Staphylococcus aureus. In words: Antimicrobial activity against methicillin-sensitive Staphylococcus aureus ATCC 29213 by microbroth dilution method.
Test [4] relates to Escherichia coli. The test is described as follows: Antimicrobial activity against Escherichia coli K-12 by microbroth dilution method.
Test [5] relates to Escherichia coli. In words: Antimicrobial activity against tolC-deficient Escherichia coli by microbroth dilution method.
For test [6], the system named is Staphylococcus aureus. The test is described as follows: Antimicrobial activity against methicillin-resistant Staphylococcus aureus NRS 70 by microbroth dilution method.
For test [7], the system named is Klebsiella pneumoniae. The test is described as follows: Antimicrobial activity against Klebsiella pneumoniae ATCC 33495 at >200 ug/ml by microbroth dilution method.
For test [8], the system named is Pseudomonas aeruginosa. In words: Antimicrobial activity against Pseudomonas aeruginosa PAO1 at >200 ug/ml by microbroth dilution method.

≈ marks a conversion by molar mass, not a printed value. Bounds are passed on as bounds.

The values that follow come from ChEMBL document CHEMBL3351381, “Synthesis, structure-activity relationship studies, and antibacterial evaluation of 4-chromanones and chalcones, as well as olympicin A and derivatives” (J Med Chem, 2014).

As usually defined, the MIC is the lowest concentration that inhibits growth of the organism.

Turning to `O=C1CC(CCc2ccccc2)Oc2cc(O)ccc21` (stereo not drawn), the MIC in test [1] is 100 µg/mL (≈ 373 µM); in test [2] it was above 200 µg/mL; in test [3], 50 µg/mL (≈ 186 µM); in test [4], above 200 µg/mL; in test [5], 12.5 µg/mL (≈ 46.6 µM); in test [6] it was 50 µg/mL (≈ 186 µM). Besides, the MIC in test [7] and in test [8] was above 200 µg/mL throughout.
As to `CCCC1CC(=O)c2c(OCOC)cc(OCOC)cc2O1` (stereo not drawn), the minimum inhibitory concentration (MIC) in test [1] is 100 µg/mL (≈ 322 µM); in test [2], above 200 µg/mL; in test [3] it was above 200 µg/mL; in test [4] it was above 200 µg/mL; in test [5], 100 µg/mL (≈ 322 µM); in test [6] it was above 200 µg/mL. For the same compound, the MIC in test [7] and in test [8] was above 200 µg/mL throughout.
`C=CCOc1ccccc1C1CC(=O)c2c(O)cc(O)cc2O1` (stereo not drawn): the MIC in test [1] is above 200 µg/mL; in test [2], 50 µg/mL (≈ 160 µM); in test [3], 25 µg/mL (≈ 80 µM); in test [4], above 200 µg/mL; in test [5], 6.25 µg/mL (≈ 20 µM); in test [6] it was 12.5 µg/mL (≈ 40 µM). In addition, the minimal inhibitory concentration (MIC) in test [7] and in test [8] was above 200 µg/mL throughout.
On to `C=CCOc1cccc(/C=C/C(=O)c2ccc(O)cc2O)c1`, for which the minimal inhibitory concentration (MIC) in test [1] is 50 µg/mL (≈ 169 µM); in test [2], above 200 µg/mL; in test [3] it was 6.25 µg/mL (≈ 21.1 µM); in test [4] it was above 200 µg/mL; in test [5], 3.13 µg/mL (≈ 10.6 µM); in test [6], 12.5 µg/mL (≈ 42.2 µM). The minimum inhibitory concentration (MIC) in test [7] and in test [8] was above 200 µg/mL throughout.
In the case of `CCCCCCC1CC(O)c2ccc(O)cc2O1` (stereo not drawn), the minimum inhibitory concentration (MIC) in test [1] is 50 µg/mL (≈ 200 µM); in test [2], 50 µg/mL (≈ 200 µM); in test [3] it was above 200 µg/mL; in test [4], above 200 µg/mL; in test [5], 3.13 µg/mL (≈ 12.5 µM); in test [6], 200 µg/mL (≈ 799 µM). Further, the MIC in test [7] and in test [8] was above 200 µg/mL throughout.
Turning to `CCCCCCC1CC(=O)c2ccc(O)cc2O1` (stereo not drawn), the MIC in test [1] was 50 µg/mL (≈ 201 µM); in test [2], above 200 µg/mL; in test [3] it was above 200 µg/mL; in test [4], above 200 µg/mL; in test [5], 3.13 µg/mL (≈ 12.6 µM); in test [6], above 200 µg/mL. Further, the MIC in test [7] and in test [8] was above 200 µg/mL each time.
As to `CCCCCCCCCC1CC(=O)c2c(OCOC)cc(OCOC)cc2O1` (stereo not drawn), the MIC was 100 µg/mL (≈ 253 µM) in test [1]; above 200 µg/mL in test [2]; above 200 µg/mL in test [3]; above 200 µg/mL in test [4]; above 200 µg/mL in test [5]; above 200 µg/mL in test [6]. For the same compound, the MIC in test [7] and in test [8] was above 200 µg/mL each time.
Turning to `CC(C)=CCCC(C)CC1CC(=O)c2c(O)cccc2O1` (stereo not drawn), the MIC in test [1], in test [2], in test [3], in test [4], in test [5] and in test [6] was above 200 µg/mL in each case. Also, the minimum inhibitory concentration (MIC) in test [7] and in test [8] was above 200 µg/mL each time.
For the compound `CC1(C)C2CC=C(C3CC(=O)c4c(O)cc(O)cc4O3)C1C2` (stereo not drawn), the MIC in test [1] is 200 µg/mL (≈ 666 µM); in test [2], 12.5 µg/mL (≈ 41.6 µM); in test [3], 12.5 µg/mL (≈ 41.6 µM); in test [4] it was above 200 µg/mL; in test [5], 3.13 µg/mL (≈ 10.4 µM); in test [6], 6.25 µg/mL (≈ 20.8 µM). The minimal inhibitory concentration (MIC) in test [7] and in test [8] was above 200 µg/mL in each case.
As for `CCCC1C/C(=N\O)c2c(O)cc(O)cc2O1` (stereo not drawn), the minimum inhibitory concentration (MIC) in test [1] was 100 µg/mL (≈ 421 µM); in test [2] it was 100 µg/mL (≈ 421 µM); in test [3], 100 µg/mL (≈ 421 µM); in test [4], above 200 µg/mL; in test [5], 25 µg/mL (≈ 105 µM); in test [6], 50 µg/mL (≈ 211 µM). Besides, the MIC in test [7] and in test [8] was above 200 µg/mL throughout.
As for `CC1(C)C2CC=C(/C=C/C(=O)c3c(O)cc(O)cc3O)C1C2` (stereo not drawn), the MIC was above 200 µg/mL in test [1]; 25 µg/mL (≈ 83.2 µM) in test [2]; above 200 µg/mL in test [3]; above 200 µg/mL in test [4]; 6.25 µg/mL (≈ 20.8 µM) in test [5]; 200 µg/mL (≈ 666 µM) in test [6]. The MIC in test [7] and in test [8] was above 200 µg/mL in each case.
